Calls of active or inactive are those of the source.
Assays:
Format in all cases: functional
[1] = target: T1, Sentrin-specific protease 7 (Homo sapiens, UniProt Q9BQF6);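 note: Luminescence-based dose-response confirmation of ultra-high-throughput screening hits, measuring inhibition of SENP7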
T1 sequence (Q9BQF6 whole entry): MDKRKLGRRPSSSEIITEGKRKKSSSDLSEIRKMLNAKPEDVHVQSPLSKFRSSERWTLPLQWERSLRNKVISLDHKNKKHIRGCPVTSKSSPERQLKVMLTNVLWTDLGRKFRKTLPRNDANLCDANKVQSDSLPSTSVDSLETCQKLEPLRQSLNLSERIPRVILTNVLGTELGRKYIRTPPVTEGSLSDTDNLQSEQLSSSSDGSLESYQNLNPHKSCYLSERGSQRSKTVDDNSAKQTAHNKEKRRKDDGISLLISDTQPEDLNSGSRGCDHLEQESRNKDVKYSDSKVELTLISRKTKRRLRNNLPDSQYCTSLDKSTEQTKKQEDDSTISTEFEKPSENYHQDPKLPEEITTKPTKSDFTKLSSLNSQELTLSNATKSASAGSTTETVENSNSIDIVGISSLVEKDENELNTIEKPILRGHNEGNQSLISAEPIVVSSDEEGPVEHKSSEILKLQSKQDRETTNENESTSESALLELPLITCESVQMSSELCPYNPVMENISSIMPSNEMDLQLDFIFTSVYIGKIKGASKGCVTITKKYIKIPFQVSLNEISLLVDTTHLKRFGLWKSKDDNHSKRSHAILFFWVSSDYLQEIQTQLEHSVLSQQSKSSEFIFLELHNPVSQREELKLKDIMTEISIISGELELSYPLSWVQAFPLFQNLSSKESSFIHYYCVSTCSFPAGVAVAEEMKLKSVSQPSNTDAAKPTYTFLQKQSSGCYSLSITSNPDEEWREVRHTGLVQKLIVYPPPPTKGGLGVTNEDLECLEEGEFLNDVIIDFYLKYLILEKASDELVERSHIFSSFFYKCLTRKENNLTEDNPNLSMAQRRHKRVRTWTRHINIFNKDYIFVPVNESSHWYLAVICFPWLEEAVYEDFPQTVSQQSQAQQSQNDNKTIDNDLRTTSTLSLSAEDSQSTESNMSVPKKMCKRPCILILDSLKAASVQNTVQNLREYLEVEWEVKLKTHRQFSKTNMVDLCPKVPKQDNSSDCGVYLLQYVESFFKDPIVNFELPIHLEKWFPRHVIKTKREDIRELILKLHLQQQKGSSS

[2] = target: T2, Sentrin-specific protease 8 (Homo sapiens, UniProt Q96LD8);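 note: luminescence read-out of SENP8 inhibition, dose-response confirmation following an ultra-high-throughput screen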
T2 sequence (Q96LD8 whole entry): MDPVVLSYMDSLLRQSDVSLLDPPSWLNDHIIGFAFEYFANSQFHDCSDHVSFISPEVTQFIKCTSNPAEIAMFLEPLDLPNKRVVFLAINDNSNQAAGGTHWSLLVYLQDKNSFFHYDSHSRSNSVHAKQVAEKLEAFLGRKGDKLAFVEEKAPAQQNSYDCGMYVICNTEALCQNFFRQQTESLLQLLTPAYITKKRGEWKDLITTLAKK

[3] = target: T3, Serine/threonine-protein kinase D3 (Homo sapiens, UniProt O94806);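 note: determined within a kinase panel screen, with PRKCN as the panel member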
T3 sequence (O94806 whole entry): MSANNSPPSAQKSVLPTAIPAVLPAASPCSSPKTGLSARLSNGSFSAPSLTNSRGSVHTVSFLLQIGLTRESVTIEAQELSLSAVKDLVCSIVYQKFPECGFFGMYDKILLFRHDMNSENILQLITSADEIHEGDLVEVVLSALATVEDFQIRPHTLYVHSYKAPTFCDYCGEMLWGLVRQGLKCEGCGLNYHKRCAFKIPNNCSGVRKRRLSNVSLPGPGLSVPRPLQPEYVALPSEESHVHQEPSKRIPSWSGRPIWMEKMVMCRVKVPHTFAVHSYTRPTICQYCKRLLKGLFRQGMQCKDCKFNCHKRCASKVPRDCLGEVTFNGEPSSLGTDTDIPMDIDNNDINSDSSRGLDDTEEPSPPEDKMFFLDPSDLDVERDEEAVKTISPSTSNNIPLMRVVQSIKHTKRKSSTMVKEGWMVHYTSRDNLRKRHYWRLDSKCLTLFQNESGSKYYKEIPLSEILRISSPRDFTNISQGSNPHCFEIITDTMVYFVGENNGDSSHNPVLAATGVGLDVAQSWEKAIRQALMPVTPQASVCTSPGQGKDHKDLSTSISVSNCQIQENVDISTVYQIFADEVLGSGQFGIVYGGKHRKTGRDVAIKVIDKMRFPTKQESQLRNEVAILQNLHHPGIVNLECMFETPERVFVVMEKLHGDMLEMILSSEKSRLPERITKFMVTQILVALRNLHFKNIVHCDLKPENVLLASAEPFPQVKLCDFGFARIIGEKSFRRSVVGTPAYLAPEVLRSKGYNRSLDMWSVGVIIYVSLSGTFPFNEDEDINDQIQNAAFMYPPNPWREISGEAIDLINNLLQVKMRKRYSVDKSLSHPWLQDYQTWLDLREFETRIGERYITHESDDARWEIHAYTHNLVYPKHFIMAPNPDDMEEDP

[4] = target: Mitogen-activated protein kinase kinase kinase kinase 4 (Homo sapiens, UniProt O95819)
[5] = target: Dual specificity tyrosine-phosphorylation-regulated kinase 1A (Homo sapiens, UniProt Q13627);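 note: measured against DYRK1A as one member of a broad kinome profiling panel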

Sequence of Mitogen-activated protein kinase kinase kinase kinase 4 (O95819 whole entry): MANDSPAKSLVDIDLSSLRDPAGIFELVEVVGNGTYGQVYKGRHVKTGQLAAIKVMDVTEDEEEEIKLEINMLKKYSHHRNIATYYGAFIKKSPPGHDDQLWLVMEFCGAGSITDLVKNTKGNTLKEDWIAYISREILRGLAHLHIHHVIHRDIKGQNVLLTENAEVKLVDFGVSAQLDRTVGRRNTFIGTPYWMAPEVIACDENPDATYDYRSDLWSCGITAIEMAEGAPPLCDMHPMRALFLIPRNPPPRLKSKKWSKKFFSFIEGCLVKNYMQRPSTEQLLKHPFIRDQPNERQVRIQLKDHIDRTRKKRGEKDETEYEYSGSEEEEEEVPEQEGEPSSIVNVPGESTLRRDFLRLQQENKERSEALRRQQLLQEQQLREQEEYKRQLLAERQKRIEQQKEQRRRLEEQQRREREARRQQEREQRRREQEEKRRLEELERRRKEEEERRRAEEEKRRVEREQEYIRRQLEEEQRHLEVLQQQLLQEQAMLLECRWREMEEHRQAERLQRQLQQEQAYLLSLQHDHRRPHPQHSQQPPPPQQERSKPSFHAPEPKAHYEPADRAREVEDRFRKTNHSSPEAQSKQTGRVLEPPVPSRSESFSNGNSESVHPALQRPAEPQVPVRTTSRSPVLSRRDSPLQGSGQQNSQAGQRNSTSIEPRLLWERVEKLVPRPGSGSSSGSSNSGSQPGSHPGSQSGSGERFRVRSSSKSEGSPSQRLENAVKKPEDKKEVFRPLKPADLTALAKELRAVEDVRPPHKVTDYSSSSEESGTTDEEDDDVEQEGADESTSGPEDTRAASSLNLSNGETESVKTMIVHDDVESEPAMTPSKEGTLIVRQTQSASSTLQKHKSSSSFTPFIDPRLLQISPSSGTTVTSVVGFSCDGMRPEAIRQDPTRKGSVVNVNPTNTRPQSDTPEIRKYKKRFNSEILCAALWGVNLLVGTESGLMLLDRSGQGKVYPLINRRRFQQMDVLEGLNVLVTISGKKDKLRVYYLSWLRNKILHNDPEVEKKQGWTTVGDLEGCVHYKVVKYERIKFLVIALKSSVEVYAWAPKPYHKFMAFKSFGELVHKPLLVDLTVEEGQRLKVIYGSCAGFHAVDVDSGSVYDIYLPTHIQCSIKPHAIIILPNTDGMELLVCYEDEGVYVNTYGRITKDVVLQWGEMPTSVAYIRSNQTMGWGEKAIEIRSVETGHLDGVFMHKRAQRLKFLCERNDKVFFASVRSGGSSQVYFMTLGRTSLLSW

Ki [3]	Ki [4]	Ki [5]	Compound	IC50 [1]	IC50 [2]
0.794 µM (active)	5.01 µM (active)	0.2 µM (active)	COc1c(-c2nc3ccccc3[nH]2)c(O)cc2oc(C)cc(=O)c12	–	–
50.1 µM (active)	12.6 µM (active)	39.8 µM (active)	COC(=O)c1c(N)nc2ccccn12	–	–
> 3.98 µM (inactive)	> 5.01 µM (inactive)	> 2 µM (inactive)	Cc1ccc(F)c(NC(=O)Nc2ccc(-c3cccc4[nH]nc(N)c34)cc2)c1 [LINIFANIB]	–	–

Second part, the compound before the results:

Compound	Ki [3]	Ki [4]	Ki [5]	IC50 [1]	IC50 [2]
CCCNC(=O)c1c(N)n(CC2CCCO2)c2nc3ccccc3nc12 (stereo not given)	–	–	–	2.83 µM (active)	3.35 µM (active)
CC(C)(C)c1cc[n+](C2=C([N-]S(=O)(=O)c3cccs3)C(=O)c3ccccc3C2=O)cc1	–	–	–	8.77 µM (active)	9.58 µM (active)
Cc1cc([N+](=O)[O-])cc(/C=N\NC(=O)C2COc3ccccc3O2)c1O (stereo not given)	–	–	–	14.5 µM (active)	42.1 µM (active)
